# Source: PubChem BioAssay (NCI)
# Several values for one entry are separate records, joined by “and”; a condition that tells them apart may be missing. Identical values can stand only once.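 How tested: cells in 96-well plates exposed to compound for 48 hours at five concentrations. Abbreviation: GI50, concentration required for 50% inhibition of growth. TGI denotes the concentration required for complete inhibition of growth.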
# Tested on: SF-268 CNS
# Experiment: NCI anticancer screen, dose series, 48 h
SMILES,GI50 [µM],TGI
Clc1cccc(NC=Nc2ccc(-c3nc4ccccc4s3)cc2)c1,10.6,46.4 µM
CCC1CCC2CCCC(C)N12 (stereo not drawn),–,> 100 µM
O=C(O)CCCc1ccc(N(CCCl)CCCl)cc1,4.91,23.7 µM and 220 µM and 169 µM
CC1CCC[P+](Cc2ccccc2)(c2ccccc2)CC1 (stereo not drawn),–,> 100 µM

# Tested on: UACC-257 melanoma
# Experiment: NCI anticancer screen, dose series, 48 h
SMILES,TGI,GI50
O=C1CC[C@H]2CNC(=O)C[C@H]2C1,> 100 µM,–
O=[N+]([O-])c1ccc(NSc2ccccc2)cc1,> 100 µM,–
CCCNC(=O)OCc1c(COC(=O)NCCC)c(-c2ccc(Cl)c(Cl)c2)n2c1CCC2,20.1 µM,–
O=C(O)/C=C/C(=O)Nc1ncn[nH]1,> 100 µM,–
Cc1cccc2c3ccc4c(c3n(C)c12)C(=O)C=CC4=O,> 100 µM,–
COc1ccc(N=Cc2cc(OC)c(OC)c(OC)c2)cc1,> 100 µM,–
CN(C)CCNC(=O)c1cccc2nc3c(Cl)cccc3nc12,26.9 µM,–
COc1nc2c(cc1S(=O)(=O)c1ccccc1)CCc1c-2cnn1-c1ccccc1Cl,> 100 µM,21.8 µM
C[C@]12CCC(=O)C=C1CC[C@@H]1C2CC[C@]2(C)NC(=O)C(C#N)CC12 (stereo partly drawn),> 100 µM,–
O=S(=O)(O)C(O)/C=C/c1ccccc1 (stereo not drawn),> 100 µM,–
C/C(=N\NC(N)=S)c1ccc(C)cc1C,> 100 µM,–
OCc1c(-c2cccc3ccccc23)sc(-c2cccc3ccccc23)c1CO,25.6 µM,–
CC1=CCCC(OC(N)=O)C1 (stereo not drawn),> 100 µM,–
COc1cc2c(cc1O)[C@H](Cc1ccc(Oc3cc(C[C@H]4c5cc(OC)c(OC)cc5CCN4C)ccc3OC)cc1)NCC2,29.7 µM,–
Cc1c(C(=O)/C=C/c2cccc3ccccc23)[n+](=O)c2ccccc2n1[O-],26.7 µM,–
Cc1nc2nnc(C)n2c2c1C(=O)Nc1ccccc1N2,> 100 µM,–
CC1=C[C@@H]2Cc3occc3C(C)(C)[C@@H]2CC1,44.7 µM,–
CCCCCCCCCCCCCCC1OC(=O)c2ccccc21 (stereo not drawn),> 100 µM,–
COC(=O)C(CC(=O)c1cc2c(cc1I)OCO2)Cc1cc(OC)c(OC)c(OC)c1I (stereo not drawn),> 100 µM,–
COC(=O)c1c(OC)cccc1C(=O)O,> 100 µM,–
O=C(O)Cc1c[nH]c2ccc(F)cc12,> 100 µM,–
NC1(CCCCCCCCCCC(=O)O)CNCCNCCNCCNC1,> 100 µM,–
C#CC(C)(C)Oc1cc(O)c2c(=O)c3ccccc3n(C)c2c1,> 100 µM,–
COc1ccc(CNC(=O)COc2ccc(/C=N/Nc3nc4ccccc4s3)cc2)cc1,> 100 µM,4.2 µM
CCCCn1/c(=N/C(=S)N(C)C)ss/c1=N\C(=S)N(C)C,> 100 µM,–
CN(C)CCNc1nc2ccccc2c2[nH]c3ccccc3c12,16.9 µM,3.74 µM
Clc1cccc(NC=Nc2ccc(-c3nc4ccccc4s3)cc2)c1,36.6 µM,16.1 µM
CCC1CCC2CCCC(C)N12 (stereo not drawn),> 100 µM,–
O=C(O)CCCc1ccc(N(CCCl)CCCl)cc1,60.7 µM and 298 µM and 306 µM,26 µM and 148 µM

# Tested on: NCI-H23 lung
# Experiment: NCI anticancer screen, dose series, 48 h
SMILES,TGI [µM],GI50 [µM]
O=C1CC[C@H]2CNC(=O)C[C@H]2C1,> 100,–
O=[N+]([O-])c1ccc(NSc2ccccc2)cc1,> 100,–
CCCNC(=O)OCc1c(COC(=O)NCCC)c(-c2ccc(Cl)c(Cl)c2)n2c1CCC2,26.5,–
O=C(O)/C=C/C(=O)Nc1ncn[nH]1,> 100,–
Cc1cccc2c3ccc4c(c3n(C)c12)C(=O)C=CC4=O,57.8,–
COc1ccc(N=Cc2cc(OC)c(OC)c(OC)c2)cc1,> 100,–
CN(C)CCNC(=O)c1cccc2nc3c(Cl)cccc3nc12,20.8,–
C[C@]12CCC(=O)C=C1CC[C@@H]1C2CC[C@]2(C)NC(=O)C(C#N)CC12 (stereo partly drawn),> 100,–
O=S(=O)(O)C(O)/C=C/c1ccccc1 (stereo not drawn),> 100,–
C/C(=N\NC(N)=S)c1ccc(C)cc1C,> 100,–
OCc1c(-c2cccc3ccccc23)sc(-c2cccc3ccccc23)c1CO,30.1,–
CC1=CCCC(OC(N)=O)C1 (stereo not drawn),> 100,–
COc1cc2c(cc1O)[C@H](Cc1ccc(Oc3cc(C[C@H]4c5cc(OC)c(OC)cc5CCN4C)ccc3OC)cc1)NCC2,24.2,–
Cc1c(C(=O)/C=C/c2cccc3ccccc23)[n+](=O)c2ccccc2n1[O-],25.7,–
Cc1nc2nnc(C)n2c2c1C(=O)Nc1ccccc1N2,> 100,–
CC1=C[C@@H]2Cc3occc3C(C)(C)[C@@H]2CC1,57.3,–
CCCCCCCCCCCCCCC1OC(=O)c2ccccc21 (stereo not drawn),> 100,–
COC(=O)C(CC(=O)c1cc2c(cc1I)OCO2)Cc1cc(OC)c(OC)c(OC)c1I (stereo not drawn),> 100,–
COC(=O)c1c(OC)cccc1C(=O)O,> 100,–
O=C(O)Cc1c[nH]c2ccc(F)cc12,> 100,–
O=C1c2ccccc2-c2c1c1cc3c(cc1c(=O)n2CCCCl)OCO3,87.3,21.5
NC1(CCCCCCCCCCC(=O)O)CNCCNCCNCCNC1,> 100,–
C#CC(C)(C)Oc1cc(O)c2c(=O)c3ccccc3n(C)c2c1,> 100,–
COc1ccc(CNC(=O)COc2ccc(/C=N/Nc3nc4ccccc4s3)cc2)cc1,12.6,3.05
CCCCn1/c(=N/C(=S)N(C)C)ss/c1=N\C(=S)N(C)C,> 100,–
CN(C)CCNc1nc2ccccc2c2[nH]c3ccccc3c12,4.65,0.96
CNC(=O)c1cc(Oc2ccc3c(c2)sc2nc(-c4ccc(N)cc4)cn23)ccn1,> 100,0.491
Clc1cccc(NC=Nc2ccc(-c3nc4ccccc4s3)cc2)c1,48.1,16.1
CCC1CCC2CCCC(C)N12 (stereo not drawn),> 100,–
CC1CCC[P+](Cc2ccccc2)(c2ccccc2)CC1 (stereo not drawn),> 100,–

# Tested on: HCT-15 colon
# Experiment: NCI anticancer screen, dose series, 48 h
SMILES,TGI [µM],GI50 [µM]
O=C1CC[C@H]2CNC(=O)C[C@H]2C1,> 100,–
O=[N+]([O-])c1ccc(NSc2ccccc2)cc1,> 100,–
CCCNC(=O)OCc1c(COC(=O)NCCC)c(-c2ccc(Cl)c(Cl)c2)n2c1CCC2,19.8,–
O=C(O)/C=C/C(=O)Nc1ncn[nH]1,> 100,–
COc1ccc(N=Cc2cc(OC)c(OC)c(OC)c2)cc1,> 100,–
CN(C)CCNC(=O)c1cccc2nc3c(Cl)cccc3nc12,34.6,–
COc1nc2c(cc1S(=O)(=O)c1ccccc1)CCc1c-2cnn1-c1ccccc1Cl,> 100,6.24
